Assay: molar heat capacity at constant pressure
Conditions: 101.33 kPa, Crystal, Small sample (50 mg) DSC

OC(c1ccccc1)(c1ccccc1)c1ccccc1 [triphenylmethanol]
Conditions | molar heat capacity at constant pressure [J/K/mol]
312.15 K | 331.2
313.15 K | 331.9
314.15 K | 332.7
315.15 K | 333.4
316.15 K | 334.4
317.15 K | 335.9
318.15 K | 336.8
319.15 K | 337.6
320.15 K | 338.3
321.15 K | 339.8
322.15 K | 340.7
323.15 K | 343.5
324.15 K | 344.4
325.15 K | 345.5
326.15 K | 346.3
327.15 K | 347.4
328.15 K | 348.5
329.15 K | 349.7
330.15 K | 350.6
331.15 K | 351.4
332.15 K | 352.2
333.15 K | 353.2
334.15 K | 354.1
335.15 K | 355
336.15 K | 356.1
337.15 K | 357.1
338.15 K | 358.3
339.15 K | 359.3
340.15 K | 359.9
341.15 K | 360.8
342.15 K | 362
343.15 K | 363.1
344.15 K | 363.9
345.15 K | 364.6
346.15 K | 365.7
347.15 K | 366.7
348.15 K | 367.5
349.15 K | 368.3
350.15 K | 369.4
351.15 K | 370.6
352.15 K | 371.3
353.15 K | 374.6
354.15 K | 375.6
355.15 K | 376.7
356.15 K | 378.1
357.15 K | 379
358.15 K | 379.6
359.15 K | 380.8
360.15 K | 381.6
361.15 K | 382.3
362.15 K | 383
363.15 K | 383.8
364.15 K | 384.8
365.15 K | 386.1
366.15 K | 387.2
367.15 K | 387.8
368.15 K | 389.1
369.15 K | 391
370.15 K | 393.2
371.15 K | 395.8
372.15 K | 396.3
373.15 K | 397.3

Reference: the NIST ThermoML archive (doi:10.1016/j.jct.2016.02.010)
